Measured values from patent publication US20220372040A1, “METTL3 MODULATORS” (Accent Therapeutics, Inc., priority 2020, published 2022).
Where two headings read alike, the source gives them in different places.

Key:
METTL3/METTL14 = METTL3/METTL14 (Homo sapiens, UniProt Q86U44); test: METTL3-14 standard enzyme assay (3H-SAM flashplate scintillation); type: biochemical; conditions: METTL3/METTL14 2.5 nM, RNA 100 nM, 3H-SAM 100 nM, 30 min
In short: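 METTL3/METTL14 (2.5 nM final) preincubated 5 min with compound in 20 mM HEPES pH 7.5, 50 mM KCl, 250 μM MgCl2, 1 mM DTT, ambient temperature; started with 100 nM 3′-biotinylated RNA (UCUGGACUAAA) and 100 nM 3H-SAM. After 30 min, quenched with 15 μM cold SAM; methylated RNA captured on streptavidin flashplates and counted by scintillation.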

MOLM-13 cells = test: MOLM-13 48 Hour cell proliferation assay (Cell Titer-Glo); type: cell-based; conditions: Homo sapiens
Method: MOLM-13 48 Hour Cell Proliferation Assay
MOLM-13 (DSMZ) cells were seeded at 1000 cells per well in a volume of 44 μL in a Falcon 384-well tissue culture treated clear bottom microplate in RPMI 1640 media containing 10% fetal bovine serum using a Multidrop Combi (ThermoFisher Scientific). Cells were incubated overnight at 37° C. in a humidified tissue culture incubator. The Mosquito® HTS Liquid Handler was used to make a compound/media intermediate plate by aliquoting […] of compound from the initial compound dilution plate (concentrations ranging from 10.0 mM to 38.0 nM in 100% DMSO) into a V bottom 384-well screen matrix plate containing 49 µL of media containing the appropriate serum (50-fold dilution, 2% DMSO). The Apricot liquid handling system was used to transfer […] compounds from the intermediate plate into the Falcon 384-well tissue culture plate containing 44 μL cells (10-point, 4-fold dilution spanning concentrations 25.0 μM to […], 0.25% DMSO final), and placed in a humidified tissue culture incubator at 37° C. After 48 hours, 25 μL of Cell Titer-Glo reagent (Promega) was added to each well using a Multidrop Combi. The plate was protected from light and placed on an IKA plate shaker for at 300 rpm for 10 minutes at room temperature. The plate was read on an EnVision plate reader (Perkin Elmer) using the Ultra Sensitive Luminescence protocol. Data analysis was performed by normalizing the raw luminescence units to an average of the positive control values for staurosporine (100% cell death) and the negative control values for DMSO (0% cell death). An IC50 was calculated using a 4-parameter logistic nonlinear regression model in GraphPad Prism.

[1] = system: m^6 A in cellular mRNA of MOLM-13 cells; test: m^6 A-mRNA LC-MS/MS assay (m^6 A cellular assay); type: cell-based; conditions: Homo sapiens, 24 hours incubation, LC-MS/MS of m^6 A/A in mRNA
Method: m^6 A-mRNA LC-MS/MS Assay
5×10^6 MOLM-13 (DSMZ) cells were seeded into 10 cm dishes in RPMI 1640 media containing 10% fetal bovine serum and placed in a humidified tissue culture incubator at 37° C. overnight. Compounds were resuspended in 100% DMSO and dosed into each dish at a fixed concentration to comprise an 8-point dose response with a 4-fold serial dilution ranging from 25 μM to 1.5 nM in 0.25% DMSO final and allowed to incubate for 24 hours in a humidified tissue culture incubator at 37° C. Cells were harvested by centrifugation followed by mRNA extraction using DTRECT Dynabeads mRNA DTRECT kit (Life Technologies). mRNA was quantified on NanoDrop spectrophotometer (Thermo Fisher Scientific) and digested into single nucleosides using Nucleoside Digestion Mix (New England Biolabs). Nucleosides are quantified with retention time on a BEH […] column (Waters) and the nucleoside-to-base ion mass transition of 282.1-150.1 (m^6 A) and 268-136 (A) on an API 6500+ triple quadrupole mass spectrometer. Quantification is performed in comparison with the standard curve, obtained from pure nucleoside standards (Selleck Chemicals) running with the same batch of samples. Percentage m^6 A in cellular mRNA is calculated as 100*(m^6 A/A).

METTL1/WDR4 = METTL1/WDR4 (Homo sapiens, UniProt Q9UBP6); test: METTL1 assay (3H-SAM flashplate scintillation); type: biochemical
METTL1/WDR4, sequence (Q9UBP6 whole entry, species assumed): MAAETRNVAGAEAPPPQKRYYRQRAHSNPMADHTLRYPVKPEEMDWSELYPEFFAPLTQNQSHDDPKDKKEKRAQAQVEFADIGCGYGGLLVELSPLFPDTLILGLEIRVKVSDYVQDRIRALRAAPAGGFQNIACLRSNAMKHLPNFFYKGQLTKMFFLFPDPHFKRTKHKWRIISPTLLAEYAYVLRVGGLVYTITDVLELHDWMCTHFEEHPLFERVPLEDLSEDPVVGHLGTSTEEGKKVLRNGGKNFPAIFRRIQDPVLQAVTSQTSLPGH
METTL1/WDR4, sequence (P57081 whole entry partner, species assumed): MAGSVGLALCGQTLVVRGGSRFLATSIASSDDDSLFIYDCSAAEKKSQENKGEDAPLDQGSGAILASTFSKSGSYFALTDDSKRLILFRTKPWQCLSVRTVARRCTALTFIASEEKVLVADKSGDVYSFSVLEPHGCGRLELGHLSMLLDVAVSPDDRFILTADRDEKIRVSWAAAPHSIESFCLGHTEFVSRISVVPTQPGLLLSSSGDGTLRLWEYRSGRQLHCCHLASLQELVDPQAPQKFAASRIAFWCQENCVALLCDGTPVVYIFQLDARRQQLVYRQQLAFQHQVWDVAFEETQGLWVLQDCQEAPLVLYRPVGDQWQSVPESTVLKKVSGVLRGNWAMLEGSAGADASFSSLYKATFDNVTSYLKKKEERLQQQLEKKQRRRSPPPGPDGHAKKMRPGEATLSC
In short: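 Radiometric methyltransfer by METTL1/WDR4 (6.25 nM f.c., 5 min preincubation) at ambient temperature in HEPES pH 7.5, KCl, MgCl2, DTT; started with 25 nM 3′-biotinylated RNA and 60 nM 3H-SAM, run 20 min, quenched with 15 μM cold SAM. Product captured on streptavidin flashplates (2 h, 25° C), counted by scintillation.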

[2] = METTL1/WDR4 6.25 nM, RNA 25 nM, 3H-SAM 60 nM, 20 min, read-out: METTL1 IC50

METTL3/METTL14, sequence (Q86U44 whole entry, species assumed): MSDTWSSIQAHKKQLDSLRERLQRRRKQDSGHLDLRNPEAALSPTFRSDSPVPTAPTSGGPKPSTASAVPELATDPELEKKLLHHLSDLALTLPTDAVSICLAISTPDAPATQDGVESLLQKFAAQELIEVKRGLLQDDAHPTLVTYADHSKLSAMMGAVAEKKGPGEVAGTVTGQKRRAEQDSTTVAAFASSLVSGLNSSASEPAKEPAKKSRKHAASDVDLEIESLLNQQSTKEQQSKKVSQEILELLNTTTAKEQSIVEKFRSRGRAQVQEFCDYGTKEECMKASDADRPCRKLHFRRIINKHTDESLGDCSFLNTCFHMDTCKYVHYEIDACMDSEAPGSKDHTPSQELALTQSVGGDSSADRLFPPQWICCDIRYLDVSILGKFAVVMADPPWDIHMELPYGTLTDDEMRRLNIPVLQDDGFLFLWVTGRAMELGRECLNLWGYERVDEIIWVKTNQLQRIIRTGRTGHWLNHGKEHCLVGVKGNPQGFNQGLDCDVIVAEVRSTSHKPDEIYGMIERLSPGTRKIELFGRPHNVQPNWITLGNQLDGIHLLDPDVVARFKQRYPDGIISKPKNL
METTL3/METTL14, sequence (Q9HCE5 whole entry partner, species assumed): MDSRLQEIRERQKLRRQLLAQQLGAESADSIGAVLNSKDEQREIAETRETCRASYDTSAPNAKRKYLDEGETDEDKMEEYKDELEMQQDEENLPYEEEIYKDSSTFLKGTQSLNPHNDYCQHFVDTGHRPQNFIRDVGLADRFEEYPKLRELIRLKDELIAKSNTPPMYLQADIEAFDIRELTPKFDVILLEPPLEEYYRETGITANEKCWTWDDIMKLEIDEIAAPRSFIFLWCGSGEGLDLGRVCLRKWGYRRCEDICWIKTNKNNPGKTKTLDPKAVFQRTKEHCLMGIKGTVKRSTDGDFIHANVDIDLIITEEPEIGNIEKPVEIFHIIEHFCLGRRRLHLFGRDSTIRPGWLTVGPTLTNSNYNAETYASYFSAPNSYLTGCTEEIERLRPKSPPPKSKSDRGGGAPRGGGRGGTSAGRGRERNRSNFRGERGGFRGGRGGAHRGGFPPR

CNc1ccc2ccc(OCc3cncc(-n4cc(CC5CC5)c5c(N)ncnc54)c3)cc2n1 [Compound I-29]
IC50 (METTL3/METTL14): < 0.01 µM
IC50 (MOLM-13 cells): < 1 µM
IC50 [1]: 1 to 10 µM
IC50 (METTL1/WDR4; [2]): > 1 µM

CNc1ccc2ccc(CCc3cncc(-n4ccc5c(N)ncnc54)c3)cc2n1 [Compound I-30]
IC50 (METTL3/METTL14): 0.01 to 0.1 µM
IC50 (MOLM-13 cells): 1 to 10 µM
IC50 [1]: 1 to 10 µM
IC50 (METTL1/WDR4; [2]): > 1 µM

CNc1ccc2ccc(OCc3cc(CO)cc(-n4cc(Cl)c5c(N)ncnc54)c3)cc2n1 [Compound I-34]
IC50 (METTL3/METTL14): < 0.01 µM
IC50 (MOLM-13 cells): < 1 µM
IC50 [1]: ≥ 10 µM
IC50 (METTL1/WDR4; [2]): > 1 µM

CNc1ccc2ccc(OCc3cncc(-n4cc(-c5ccnn5C)c5c(N)ncnc54)c3)cc2n1 [Compound I-35]
IC50 (METTL3/METTL14): < 0.01 µM
IC50 (MOLM-13 cells): < 1 µM
IC50 [1]: ≥ 10 µM
IC50 (METTL1/WDR4; [2]): > 1 µM

CNc1ccc2ccc(OCc3cncc(-n4c(C)cc5c(N)ncnc54)c3)cc2n1 [Compound I-36]
IC50 (METTL3/METTL14): 0.01 to 0.1 µM
IC50 (MOLM-13 cells): 1 to 10 µM
IC50 [1]: 1 to 10 µM
IC50 (METTL1/WDR4; [2]): > 1 µM

CNc1ccc2ccc(OCc3cncc(-n4cc(C5CCCC5)c5c(N)ncnc54)c3)cc2n1 [Compound I-58]
IC50 (METTL3/METTL14): < 0.01 µM
IC50 (MOLM-13 cells): < 1 µM
IC50 [1]: 1 to 10 µM

CCNc1ccc2ccc(OCc3cccc(-n4cc(Cl)c5c(N)ncnc54)c3)cc2n1 [Compound I-61]
IC50 (METTL3/METTL14): 0.01 to 0.1 µM
IC50 (METTL1/WDR4; [2]): > 1 µM

CNc1ccc2cc(CCc3cccc(-n4cc(Cl)c5c(N)ncnc54)c3)ccc2n1 [Compound I-70]
IC50 (METTL3/METTL14): 0.1 to 1 µM
IC50 (MOLM-13 cells): 1 to 10 µM
IC50 [1]: ≥ 10 µM
IC50 (METTL1/WDR4; [2]): > 1 µM

CNc1ccc2ccc(OCc3cncc(-n4cc(Cl)c5c(N)ncnc54)c3)cc2n1 [Compound I-74, 7-((5-(4-amino-5-chloro-7H-pyrrolo[2,3-d]pyrimidin-7-yl)pyridin-3-yl)methoxy)-N-methylquinolin-2-amine]
IC50 (METTL3/METTL14): < 0.01 µM
IC50 (MOLM-13 cells): 1 to 10 µM
IC50 [1]: 1 to 10 µM
IC50 (METTL1/WDR4; [2]): > 1 µM

CNc1ccc2ccc(OCc3cc(Br)cc(-n4cc(Cl)c5c(N)ncnc54)c3)cc2n1 [Compound I-75]
IC50 (METTL3/METTL14): 0.1 to 1 µM
IC50 (METTL1/WDR4; [2]): > 1 µM

CNc1ccc2ccc(OCc3cccc(-n4cc(Cl)c5c(N)ncnc54)c3)cc2n1 [Compound I-87]
IC50 (METTL3/METTL14): 0.01 to 0.1 µM
IC50 (MOLM-13 cells): 1 to 10 µM
IC50 (METTL1/WDR4; [2]): > 1 µM

Nc1nc2cc(OCc3cncc(-n4ccc5c(N)ncnc54)c3)ccc2cc1Br [Compound I-111]
IC50 (METTL3/METTL14): > 1 µM
IC50 (METTL1/WDR4; [2]): > 1 µM

CNc1ccc2ccc(OCc3cncc(-n4cc([C@H]5CCCO5)c5c(N)ncnc54)c3)cc2n1 [Compound I-112]
IC50 (METTL3/METTL14): < 0.01 µM
IC50 [1]: 1 to 10 µM
IC50 (METTL1/WDR4): > 1 µM

CNc1ccc2ccc(OCc3cncc(-n4cc([C@@H]5CCCO5)c5c(N)ncnc54)c3)cc2n1 [Compound I-113]
IC50 (METTL3/METTL14): < 0.01 µM
IC50 [1]: < 1 µM
IC50 (METTL1/WDR4): > 1 µM

Cn1ccc(-c2cn(-c3cncc(CCc4ccc5ccc(N)nc5c4)c3)c3ncnc(N)c23)n1 [Compound I-114]
IC50 (METTL3/METTL14): < 0.01 µM
IC50 (METTL1/WDR4; [2]): > 1 µM

CCc1cc(NCCOC)c2ccc(CCc3cncc(-n4cc(-c5ccn(C)n5)c5c(N)ncnc54)c3)cc2n1 [Compound I-115]
IC50 (METTL3/METTL14): < 0.01 µM
IC50 [1]: < 1 µM
IC50 (METTL1/WDR4): > 1 µM

CNc1ccc2ccc(CCc3cncc(-n4cc(F)c5c(N)ncnc54)c3)cc2n1 [Compound I-116]
IC50 (METTL3/METTL14): < 0.01 µM
IC50 (METTL1/WDR4; [2]): > 1 µM

CCc1cc(N(C)CCOC)c2ccc(CCc3cncc(-n4cc(-c5ccn(C)n5)c5c(N)ncnc54)c3)cc2n1 [Compound I-117]
IC50 (METTL3/METTL14): < 0.01 µM
IC50 [1]: < 1 µM
IC50 (METTL1/WDR4): > 1 µM

CCc1cc(N2CCC(F)(F)CC2)c2ccc(OCc3cncc(-n4ccc5c(N)ncnc54)c3)cc2n1 [Compound I-118]
IC50 (METTL3/METTL14): < 0.01 µM
IC50 (METTL1/WDR4; [2]): > 1 µM

CNc1ccc2ccc(OCc3cncc(-n4cc(C(C)C5CC5)c5c(N)ncnc54)c3)cc2n1 (stereo not shown) [Compound I-120]
IC50 (METTL3/METTL14): < 0.01 µM
IC50 (METTL1/WDR4; [2]): > 1 µM

CCc1cc(N2CCNCC2)c2ccc(OCc3cncc(-n4cc(-c5ccn(C)n5)c5c(N)ncnc54)c3)cc2n1 [Compound I-121]
IC50 (METTL3/METTL14): < 0.01 µM
IC50 [1]: 1 to 10 µM
IC50 (METTL1/WDR4; [2]): > 1 µM

CCc1cc(NC)c2ccc(CCc3cncc(-n4cc(-c5ccn(C)n5)c5c(N)ncnc54)c3)cc2n1 [Compound I-122]
IC50 (METTL3/METTL14): < 0.01 µM
IC50 (METTL1/WDR4; [2]): > 1 µM

Cn1ccc(-c2cn(-c3cncc(CCc4ccc5cc(Br)c(N)nc5c4)c3)c3ncnc(N)c23)n1 [Compound I-123]
IC50 (METTL3/METTL14): > 1 µM
IC50 (METTL1/WDR4; [2]): > 1 µM

C[C@@H]1CCN1c1ccc2ccc(OCc3cncc(-n4cc(C5CCCC5)c5c(N)ncnc54)c3)cc2n1 [Compound I-124]
IC50 (METTL3/METTL14): 0.01 to 0.1 µM
IC50 (METTL1/WDR4; [2]): > 1 µM

Nc1ncnc2c1c(C1CCCO1)cn2-c1cncc(CCc2ccc3ccc(N4CCC4)nc3c2)c1 (stereo not shown) [Compound I-126]
IC50 (METTL3/METTL14): < 0.01 µM
IC50 [1]: 1 to 10 µM
IC50 (METTL1/WDR4; [2]): > 1 µM

CCc1cc(NCCCN(C)C)c2ccc(CCc3cncc(-n4ccc5c(N)ncnc54)c3)cc2n1 [Compound I-127]
IC50 (METTL3/METTL14): < 0.01 µM
IC50 (METTL1/WDR4; [2]): > 1 µM

CCNc1ccc2ccc(OCc3cncc(-n4cc(-c5ccn(C)n5)c5c(N)ncnc54)c3)cc2n1 [Compound I-128]
IC50 (METTL3/METTL14): < 0.01 µM
IC50 [1]: 1 to 10 µM
IC50 (METTL1/WDR4; [2]): > 1 µM

CNc1ccc2ccc(OCc3cncc(-n4cc(-c5ccc(C)o5)c5c(N)ncnc54)c3)cc2n1 [Compound I-234]
IC50 (METTL3/METTL14): < 0.01 µM
IC50 [1]: 1 to 10 µM
IC50 (METTL1/WDR4; [2]): > 1 µM

CNc1ccc2ccc(OCc3cncc(-n4cc(-c5ncco5)c5c(N)ncnc54)c3)cc2n1 [Compound I-235]
IC50 (METTL3/METTL14): < 0.01 µM
IC50 (METTL1/WDR4; [2]): > 1 µM
